Tests used:
[1] = Loss of heavy-isotope-labeled fatty acids during incubation (adsorption to container); assay type: physicochemical; conditions: 1% PS20, 200 mg/mL mAb3, 37° C., plastic tubes
Procedure: The hydrolysis of PS20 in mAb formulations used for the fatty acid quantitation method of the invention was optimized by mixing 60 μL of 200 mg/mL mAb-3 (10 mM histidine, pH 6.3) with 0.62 μL, 1.26 μL, 3.2 μL and 6.8 μL 10% PS20 with or without 1.5 μL ISTD mixture (200 μg/mL lauric-d23 acid, 40 μg/mL myristic-d27 acid, and oleic acid-^13C18 in 20% methanol) in Eppendorf plastic tubes (category number 022431064) or Waters glass vials (SKU 600000668CV), […] Incubation samples were analyzed by LC multiple reaction monitoring (LC-MRM) after extraction (Table 2). Incubation conditions were optimized for measuring fatty acid content using LC-MRM after extraction. Fatty acids were extracted from mAb solution using an extraction protocol developed by Honemann et al. with an optimized precipitation buffer and extraction time (Honemann et al.). […] Subsequently, 40 μL of the supernatant was transferred to a 96-well plate, and 5 μL was subjected to LC-MRM for quantitation. […] Elution was performed at 0.4 mL/minute, and peaks at 1-7 minutes were analyzed using an ESI source operating in negative mode, with a gas temperature of 200° C., gas flow of 12 L/minute, nebulizer gas pressure of 20 psi, sheath gas temperature of 300° C., sheath gas flow of 11 L/min, capillary voltage of −3000 V, and nozzle voltage of 500 V. Lauric acid and lauric-d23 acid were monitored at 199.1/199.1 and 222.3/222.3; myristic acid and myristic-d27 acid were monitored at 227.2/227.2 and 254.4/254.4; palmitic acid, oleic acid, oleic acid-^13C18, stearic acid, and linoleic acid were monitored at 255.2/255.2, 281.2/281.2, 299.2/299.2, 283.2/283.2, and 279.2/279.2 with CE 5, respectively. […] Peak integration was performed by Skyline, and fatty acid concentrations were calculated based on a calibration curve created from a spiked-in fatty acid concentration plot against To investigate why fatty acids were lost during incubation, isotope-labeled fatty acids were employed. […]

[2] = Solubility of free fatty acid in the formulation; assay type: physicochemical; conditions: mAb formulation, aqueous with cosolvent or surfactant or cyclodextrin

Q: With `CCCCCCCC/C=C\CCCCCCCC(=O)O` [oleic acid] as the molecule, how does the “fatty acid lost after 6-day incubation” value [1] read?
A: The value was 15%.

Q: With `CCCCCCCCCCCC(=O)O` [lauric acid] as the molecule, how does the “fatty acid lost after 6-day incubation” value [1] read?
A: The value was 50%.

Q: What about the solubility [2] of the same molecule?
A: The solubility was over 20 µg/mL.

Q: For `CCCCCCCCCCCCCC(=O)O` [myristic acid], which “fatty acid lost after 6-day incubation” value [1] is on record?
A: The value was 34%.
